In US10160747B2, “Compounds and methods for kinase modulation, and indications therefor” (Plexxikon Inc., priority 2016, dated 2018):

Experiments:
FLT3-D835Y = biological target: T1, FLT3-D835Y (Homo sapiens, UniProt P36888, D835Y); experiment: FLT3-D835Y recombinant enzyme kinase assay (AlphaScreen); format: biochemical; conditions: 8 pt, GMean
T1 construct: purchased Invitrogen PV3967
T1 sequence (P36888 27-993 D835Y): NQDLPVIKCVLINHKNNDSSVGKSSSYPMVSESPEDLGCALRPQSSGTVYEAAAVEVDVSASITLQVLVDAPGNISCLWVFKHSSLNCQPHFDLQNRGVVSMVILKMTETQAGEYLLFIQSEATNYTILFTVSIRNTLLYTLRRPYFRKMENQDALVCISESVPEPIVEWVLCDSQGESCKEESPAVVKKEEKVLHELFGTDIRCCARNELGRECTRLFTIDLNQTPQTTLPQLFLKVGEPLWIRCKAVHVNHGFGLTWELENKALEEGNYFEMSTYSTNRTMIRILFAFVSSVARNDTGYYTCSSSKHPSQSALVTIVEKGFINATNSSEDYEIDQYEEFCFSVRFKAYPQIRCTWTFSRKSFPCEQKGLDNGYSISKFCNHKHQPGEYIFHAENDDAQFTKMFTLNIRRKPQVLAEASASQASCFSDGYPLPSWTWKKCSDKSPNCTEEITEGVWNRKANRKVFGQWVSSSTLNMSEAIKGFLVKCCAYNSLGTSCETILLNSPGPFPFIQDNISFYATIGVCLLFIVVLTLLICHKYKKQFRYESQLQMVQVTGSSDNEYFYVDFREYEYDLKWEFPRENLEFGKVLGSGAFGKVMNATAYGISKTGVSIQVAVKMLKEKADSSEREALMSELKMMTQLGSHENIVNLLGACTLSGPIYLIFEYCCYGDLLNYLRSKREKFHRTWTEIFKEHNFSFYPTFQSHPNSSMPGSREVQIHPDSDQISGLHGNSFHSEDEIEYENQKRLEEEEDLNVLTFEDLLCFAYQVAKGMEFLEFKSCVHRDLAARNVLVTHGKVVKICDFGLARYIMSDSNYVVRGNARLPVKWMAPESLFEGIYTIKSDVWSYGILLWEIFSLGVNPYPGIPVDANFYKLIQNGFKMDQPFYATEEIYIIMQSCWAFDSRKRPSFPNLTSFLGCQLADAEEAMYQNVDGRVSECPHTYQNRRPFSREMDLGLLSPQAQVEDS
In short: (§1)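 Enzyme plus biotinylated poly(Glu4-Tyr) substrate (30 nM) mixed with compound, then ATP added. Donor beads went in for 20 min at room temperature, then PY20 acceptor beads for 60 min. AlphaScreen read; ATP was 10 μM for FLT3-ITD/D835Y and 100 μM for c-KIT.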

FLT3-ITD = biological target: T2, FLT3-ITD (Homo sapiens, UniProt P36888); experiment: FLT3-ITD recombinant enzyme kinase assay (AlphaScreen); format: biochemical; conditions: 8 pt; read-out: FLT3_ITD 8 pt: IC50
T2 sequence (P36888 1-993): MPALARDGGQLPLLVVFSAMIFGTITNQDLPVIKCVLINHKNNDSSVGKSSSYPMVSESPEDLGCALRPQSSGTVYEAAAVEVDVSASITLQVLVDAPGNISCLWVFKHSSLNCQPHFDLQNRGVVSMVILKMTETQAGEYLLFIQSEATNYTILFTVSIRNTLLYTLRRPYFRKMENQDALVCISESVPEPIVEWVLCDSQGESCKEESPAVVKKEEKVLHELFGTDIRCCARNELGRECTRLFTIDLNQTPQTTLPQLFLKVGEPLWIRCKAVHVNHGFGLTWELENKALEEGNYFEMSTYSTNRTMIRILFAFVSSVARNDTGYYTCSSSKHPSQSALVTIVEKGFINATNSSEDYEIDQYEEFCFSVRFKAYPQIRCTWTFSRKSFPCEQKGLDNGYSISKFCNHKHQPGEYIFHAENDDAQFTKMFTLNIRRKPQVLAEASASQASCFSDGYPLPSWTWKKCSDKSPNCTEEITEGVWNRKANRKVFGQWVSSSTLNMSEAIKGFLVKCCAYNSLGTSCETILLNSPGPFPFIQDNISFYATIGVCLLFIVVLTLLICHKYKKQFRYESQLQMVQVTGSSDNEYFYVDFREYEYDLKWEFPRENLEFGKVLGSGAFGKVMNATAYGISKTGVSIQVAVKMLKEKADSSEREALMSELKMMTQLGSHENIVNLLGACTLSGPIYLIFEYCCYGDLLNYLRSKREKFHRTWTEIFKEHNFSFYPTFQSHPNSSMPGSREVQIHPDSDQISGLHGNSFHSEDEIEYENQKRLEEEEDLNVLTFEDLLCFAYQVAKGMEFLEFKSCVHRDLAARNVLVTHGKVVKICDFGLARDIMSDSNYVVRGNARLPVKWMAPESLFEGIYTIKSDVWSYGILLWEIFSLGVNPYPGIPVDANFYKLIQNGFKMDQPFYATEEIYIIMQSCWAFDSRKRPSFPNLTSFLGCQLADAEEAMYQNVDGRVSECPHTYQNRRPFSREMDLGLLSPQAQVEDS
In short: as §1

Compound | IC50 (FLT3-D835Y) | IC50 (FLT3-ITD)
Cn1cnc(Nc2ncc(-c3ccc(CC(=O)Nc4cc(C(F)(F)F)ccn4)cc3)cn2)c1 [Compound P-0022, 2-[4-[2-[(1-methylimidazol-4-yl)amino]pyrimidin-5-yl]phenyl]-N-[4-(trifluoromethyl)-2-pyridyl]acetamide] | 0.0001 to 10 µM | 0.0001 to 10 µM
COc1cc(-c2cc3cc(-c4ccc(CC(=O)Nc5cncc(C(F)(F)F)c5)cc4F)cnc3[nH]2)ccn1 [Compound P-0200, 2-(3-fluoro-4-(2-(2-methoxypyridin-4-yl)-1H-pyrrolo[2,3-b]pyridin-5-yl)phenyl)-N-(5-(trifluoromethyl)pyridin-3-yl)acetamide] |  | 0.0001 to 10 µM
COc1ncc(NC(=O)Cc2cc(F)c(-c3cnc(Nc4cnn(C)c4)nc3)cc2F)cc1C(F)(F)F [Compound P-0208, 2-[2,5-difluoro-4-[2-[(1-methylpyrazol-4-yl)amino]pyrimidin-5-yl]phenyl]-N-[6-methoxy-5-(trifluoromethyl)-3-pyridyl]acetamide] | 0.0001 to 10 µM | 
COc1ncc(NC(=O)Cc2ccc(-c3cnc4[nH]c(C#CC(C)(C)C)cc4c3)cc2)cc1C(F)(F)F [Compound P-0219, 2-[4-[2-(3,3-dimethylbut-1-ynyl)-1H-pyrrolo[2,3-b]pyridin-5-yl]phenyl]-N-[6-methoxy-5-(trifluoromethyl)-3-pyridyl]acetamide] |  | 0.0001 to 10 µM
CCn1cc(Nc2ncc(-c3ccc(CC(=O)Nc4cnc(OC)c(C(F)(F)F)c4)cc3F)cn2)cn1 [Compound P-0246, 2-[4-[2-[(1-ethylpyrazol-4-yl)amino]pyrimidin-5-yl]-3-fluoro-phenyl]-N-[6-methoxy-5-(trifluoromethyl)-3-pyridyl]acetamide] | 0.0001 to 10 µM | 
CCn1cc(Nc2ncc(-c3cc(F)c(CC(=O)Nc4cnc(OC)c(C(F)(F)F)c4)cc3F)cn2)cn1 [Compound P-0247, 2-[4-[2-[(1-ethylpyrazol-4-yl)amino]pyrimidin-5-yl]-2,5-difluoro-phenyl]-N-[6-methoxy-5-(trifluoromethyl)-3-pyridyl]acetamide] | 0.0001 to 10 µM | 
CCn1cc(Nc2ncc(-c3ccc(CC(=O)Nc4cnc(C)c(C(F)(F)F)c4)cc3F)cn2)cn1 [Compound P-0248, 2-[4-[2-[(1-ethylpyrazol-4-yl)amino]pyrimidin-5-yl]-3-fluoro-phenyl]-N-[6-methyl-5-(trifluoromethyl)-3-pyridyl]acetamide] | 0.0001 to 10 µM | 
CCn1cc(Nc2ncc(-c3cc(F)c(CC(=O)Nc4cnc(C)c(C(F)(F)F)c4)cc3F)cn2)cn1 [Compound P-0249, 2-[4-[2-[(1-ethylpyrazol-4-yl)amino]pyrimidin-5-yl]-2,5-difluoro-phenyl]-N-[6-methyl-5-(trifluoromethyl)-3-pyridyl]acetamide] | 0.0001 to 10 µM | 
COc1ncc(NC(=O)Cc2ccc(-c3cnc4[nH]nc(C5CC5)c4c3)cc2F)cc1C(F)(F)F [Compound P-0262, 2-[4-(3-cyclopropyl-1H-pyrazolo[3,4-b]pyridin-5-yl)-2-fluoro-phenyl]-N-[6-methoxy-5-(trifluoromethyl)-3-pyridyl]acetamide] | 0.0001 to 10 µM | 
COc1ncc(NC(=O)Cc2ccc(-c3cnc4[nH]nc(C5CC5)c4c3)cc2)cc1C(F)(F)F [Compound P-0263, 2-[4-(3-cyclopropyl-1H-pyrazolo[3,4-b]pyridin-5-yl)phenyl]-N-[6-methoxy-5-(trifluoromethyl)-3-pyridyl]acetamide] | 0.0001 to 10 µM | 

Further lines, results first:

IC50 (FLT3-D835Y) | IC50 (FLT3-ITD) | Compound
0.0001 to 10 µM |  | COc1ncc(NC(=O)Cc2ccc(-c3cnc4[nH]c(-c5ccc(C#N)nc5)cc4c3)cc2F)cc1C(F)(F)F [Compound P-0011, 2-[4-[2-(6-cyano-3-pyridyl)-1H-pyrrolo[2,3-b]pyridin-5-yl]-2-fluoro-phenyl]-N-[6-methoxy-5-(trifluoromethyl)-3-pyridyl]acetamide]
0.0001 to 10 µM |  | COc1ncc(NC(=O)Cc2ccc(-c3cnc4[nH]c(-c5ccnc(C#N)c5)cc4c3)cc2F)cc1C(F)(F)F [Compound P-0013, 2-[4-[2-(2-cyano-4-pyridyl)-1H-pyrrolo[2,3-b]pyridin-5-yl]-2-fluoro-phenyl]-N-[6-methoxy-5-(trifluoromethyl)-3-pyridyl]acetamide]
0.0001 to 10 µM |  | COc1ncc(NC(=O)Cc2ccc(-c3cnc4[nH]c(-c5ccc(C#N)nc5)cc4c3)c(F)c2)cc1C(F)(F)F [Compound P-0014, 2-[4-[2-(6-cyano-3-pyridyl)-1H-pyrrolo[2,3-b]pyridin-5-yl]-3-fluoro-phenyl]-N-[6-methoxy-5-(trifluoromethyl)-3-pyridyl]acetamide]
0.0001 to 10 µM |  | COc1ncc(NC(=O)Cc2ccc(-c3cnc4[nH]c(-c5cnn(C(F)F)c5)cc4c3)cc2F)cc1C(F)(F)F [Compound P-0015, 2-[4-[2-[1-(difluoromethyl)pyrazol-4-yl]-1H-pyrrolo[2,3-b]pyridin-5-yl]-2-fluoro-phenyl]-N-[6-methoxy-5-(trifluoromethyl)-3-pyridyl]acetamide]
0.0001 to 10 µM |  | COc1ncc(NC(=O)Cc2ccc(-c3cnc4[nH]c(-c5ccnc(C#N)c5)cc4c3)c(F)c2)cc1C(F)(F)F [Compound P-0016, 2-[4-[2-(2-cyano-4-pyridyl)-1H-pyrrolo[2,3-b]pyridin-5-yl]-3-fluoro-phenyl]-N-[6-methoxy-5-(trifluoromethyl)-3-pyridyl]acetamide]
0.0001 to 10 µM | 0.0001 to 10 µM | Cn1cc(Nc2ncc(-c3ccc(CC(=O)Nc4cc(C(F)(F)F)ccn4)cc3F)cn2)cn1 [Compound P-0017, 2-[3-fluoro-4-[2-[(1-methylpyrazol-4-yl)amino]pyrimidin-5-yl]phenyl]-N-[4-(trifluoromethyl)-2-pyridyl]acetamide]
0.0001 to 10 µM | 0.0001 to 10 µM | Cn1cnc(Nc2ncc(-c3ccc(CC(=O)Nc4cc(C(F)(F)F)ccn4)cc3F)cn2)c1 [Compound P-0018, 2-[3-fluoro-4-[2-[(1-methylimidazol-4-yl)amino]pyrimidin-5-yl]phenyl]-N-[4-(trifluoromethyl)-2-pyridyl]acetamide]
0.0001 to 10 µM | 0.0001 to 10 µM | Cn1cc(Nc2ncc(-c3cc(F)c(CC(=O)Nc4cc(C(F)(F)F)ccn4)cc3F)cn2)cn1 [Compound P-0019, 2-[2,5-difluoro-4-[2-[(1-methylpyrazol-4-yl)amino]pyrimidin-5-yl]phenyl]-N-[4-(trifluoromethyl)-2-pyridyl]acetamide]
0.0001 to 10 µM | 0.0001 to 10 µM | Cn1cnc(Nc2ncc(-c3cc(F)c(CC(=O)Nc4cc(C(F)(F)F)ccn4)cc3F)cn2)c1 [Compound P-0020, 2-[2,5-difluoro-4-[2-[(1-methylimidazol-4-yl)amino]pyrimidin-5-yl]phenyl]-N-[4-(trifluoromethyl)-2-pyridyl]acetamide]
0.0001 to 10 µM | 0.0001 to 10 µM | O=C(Cc1cc(F)c(-c2cnc(Nc3cnn(C(F)F)c3)nc2)cc1F)Nc1cc(C(F)(F)F)ccn1 [Compound P-0021, 2-[4-[2-[[1-(difluoromethyl)pyrazol-4-yl]amino]pyrimidin-5-yl]-2,5-difluoro-phenyl]-N-[4-(trifluoromethyl)-2-pyridyl]acetamide]
